For this experiment, the system named is Meloidogyne incognita. The experiment can be described thus: Meloidogyne incognita test (MELGIN), gall formation on salad seedlings in sand. Format: in vivo. As to conditions: 0% = galls equal to untreated control. As to the method:
Meloidogyne incognita—Test (MELGIN)
To produce a suitable preparation of active compound, 1 part by weight of active compound is mixed with the stated amount of solvent, and the concentrate is diluted with emulsifier-containing water to the desired concentration.
Vessels are filled with sand, a solution of the active ingredient, a suspension containing eggs and larvae of Meloidogyne incognita and salad seeds. The salad seeds germinate and the seedlings grow. Galls develop on the roots.
After the specified period the nematicidal activity is determined on the basis of the percentage of gall formation. 100% means that no galls were found; 0% means that the number of galls found on the roots of the treated plants was equal to that in untreated control plants.

This is an account of results in patent publication US20100249193A1, “Nematicidal, Insecticidal and Acaricidal Active Ingredient Combinations Comprising Pyridyl-ethylbenzamides and Insecticides” (Bayer CropScience AG, priority 2009, published 2010).

Take `CNC(=O)c1cc(C#N)cc(C)c1NC(=O)c1cc(Br)nn1-c1ncccc1Cl` [Cyazypyr, cyazypyr]: for the setting “4 ppm”, the “Gall-formation efficacy in % after 21 d (100% = no galls)” value stood at 6%.

For `O=C(NCCc1ncc(C(F)(F)F)cc1Cl)c1ccccc1C(F)(F)F` [Fluopyram, N-{2-[3-chloro-5-(trifluoromethyl)-2-pyridinyl]ethyl}-2-trifluoromethylbenzamide], the “Gall-formation efficacy in % after 21 d (100% = no galls)” value (0.125 ppm) is listed as 56%.
